Measurements from PMC5570900, “Exploiting a novel conformational switch to control innate immunity mediated by complement protein C3a” (Nature Communications, 2017).

Columns and labels:
C3aR [1] = target: T1, C3aR (Homo sapiens, UniProt Q16581); experiment: Intracellular Ca2+ release in HEK293 cells transfected with C3aR; format: cell-based; design: Concentration-dependent Ca^2+ release in human monocyte-derived macrophages (HMDMs); endogenous in cells; host or cells: primary human monocyte-derived macrophages (HMDMs)
T1 sequence (Q16581 1-482): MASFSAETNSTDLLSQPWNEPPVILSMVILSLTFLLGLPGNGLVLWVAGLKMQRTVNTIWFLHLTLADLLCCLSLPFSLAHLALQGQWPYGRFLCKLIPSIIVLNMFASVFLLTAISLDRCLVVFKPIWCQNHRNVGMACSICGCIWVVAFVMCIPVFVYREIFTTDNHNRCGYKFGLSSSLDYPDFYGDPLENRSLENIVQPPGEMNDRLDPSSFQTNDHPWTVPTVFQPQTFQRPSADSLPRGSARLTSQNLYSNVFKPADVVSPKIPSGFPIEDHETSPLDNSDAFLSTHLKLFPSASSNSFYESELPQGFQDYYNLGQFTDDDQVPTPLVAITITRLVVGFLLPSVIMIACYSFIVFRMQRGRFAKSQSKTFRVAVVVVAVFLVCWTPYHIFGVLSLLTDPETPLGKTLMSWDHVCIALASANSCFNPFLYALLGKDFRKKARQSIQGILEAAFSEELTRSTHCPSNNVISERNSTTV

[2] = test system: wild-type human HEK293 cells (C3aR−/−); experiment: Intracellular Ca2+ release in wild-type HEK293 cells; format: cell-based
C3aR [3] = target: T1, C3aR; experiment: [125I]-hC3a competition binding on HMDMs; design: Concentration-dependent Ca^2+ release in human monocyte-derived macrophages (HMDMs); endogenous in cells; host or cells: primary human monocyte-derived macrophages (HMDMs); conditions: [125I]-hC3a 80 pM
Experimental: (§1) Receptor binding was performed by ligand competition with labelled 80 pM [^125I]-C3a or 25 pM [^125I]-C5a (2200 Ci/mmol; Perkin Elmer, Torrance, CA, USA) on HMDMs (1.2 × 10^6 cells/ml). HMDMs were treated with [^125I]-C3a or [^125I]-C5a ± various concentrations of unlabelled C3a/C5a or experimental ligands were diluted with assay buffer (50 mM Tris, 3 mM MgCl2, 0.1 mM CaCl2, 0.5% (w/v) BSA, pH 7.4) for 60 min at room temperature. Unbound [^125I]-C3a or [^125I]-C5a was removed by filtration through glass microfibre filter GF/B (Whatman Iner. Ltd, England) and washed three times with cold buffer (50 mM Tris-HCl pH 7.4). Bound [^125I]-C3a or [^125I]-C5a were assessed by scintillation counting on Microbeta counter. Specific binding was defined as the difference between total binding and nonspecific binding as determined in the presence of 1 μM unlabelled C3a or C5a[4].

[4] = Rat liver microsomal stability; format: in vitro ADME; conditions: rat liver microsomes, NADPH, 37 °C, over 1 h
Experimental: (§2) For plasma stability studies, C3a and experimental compounds (10 μL, 1 mM in DMSO) were added to neat rat plasma (190 μL) and heated to 37 °C in a circulating water bath. Aliquots (20 µL) were collected at time points (0, 2, 5 and 10 min for C3a; 0, 5, 15, 30, 60, 120 and 240 min for other test compounds) and added directly to MeCN/H2O (80 µL, 9:1). The samples were centrifuged at 13,000 g for 3 min before supernatants were isolated and analyzed for test compound degradation via LC-MS. For liver microsomal stability studies, commercially available rat liver microsomes from Life Technologies, GIBCO were used. In brief, microsomes stored at −80 °C were slowly defrosted on ice. Test compounds (183 μL, 1 μM in 100 mM phosphate buffer pH 7.4 containing 0.1 % DMSO) were added to microsomes (5 μL) and NADPH (2 µL, 20 mM). Test solutions were heated in a circulating water bath at 37 °C for 5 min before additional cofactor NADPH (10 μL, 20 mM) was added. Aliquots (20 μL) were taken at time points (0, 5, 15, 30 and 60 min from the second addition of NADPH). Aliquots were added to MeCN/H2O (80 μL, 9:1) and centrifuged at 13,000 g for 3 min. Supernatants were analyzed for test compound degradation by LC-MSMS. Concentrations were plotted as a function of time on a semi-logarithmic graph. Rat plasma and microsomal activity was confirmed by rapid degradation of SLIGRL-NH2 (t1/2 < 5 min) in a parallel experiment.

Rat plasma stability = format: in vitro ADME; conditions: neat rat plasma, 37 °C, over 4 h (C3a up to 10 min)
Experimental: as §2

C5aR = target: T2, C5aR (Homo sapiens, UniProt P21730); experiment: [125I]-hC5a competition binding on HMDMs; conditions: [125I]-hC5a 25 pM
T2 construct: endogenous in cells; host or cells: primary human monocyte-derived macrophages (HMDMs)
T2 sequence (P21730 1-350): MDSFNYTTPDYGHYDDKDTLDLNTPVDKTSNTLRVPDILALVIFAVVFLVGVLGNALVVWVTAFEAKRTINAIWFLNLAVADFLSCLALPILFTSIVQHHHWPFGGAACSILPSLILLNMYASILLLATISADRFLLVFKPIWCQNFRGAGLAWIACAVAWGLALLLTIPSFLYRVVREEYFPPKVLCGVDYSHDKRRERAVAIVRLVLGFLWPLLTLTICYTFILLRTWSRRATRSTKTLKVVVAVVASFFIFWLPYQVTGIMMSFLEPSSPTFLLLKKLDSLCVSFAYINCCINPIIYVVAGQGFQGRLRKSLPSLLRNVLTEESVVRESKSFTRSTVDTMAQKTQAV
Experimental: as §1

| Intracellular Ca2+ release (C3aR [1]; HEK293 cells transfected with C3aR (C3aR+/+), compound alone) | C3aR binding by competition with [125I]-hC3a (C3aR [3]) | Stability in rat liver microsomes [4] | Stability in rat plasma (Rat plasma stability) | C5aR binding by competition with [125I]-hC5a (C5aR) | Effect on Ca2+ release induced by C3a or 3 (C3aR [1]; C3aR-HEK293 cells, pre-treatment 30 min before C3a or 3) | SMILES | Intracellular Ca2+ release [2] |
| --- | --- | --- | --- | --- | --- | --- | --- |
| did induce Ca^2+ release | compete with ^125I-labelled C3a | much more stable than C3a | remained intact | no binding |  | Cc1[nH]c(C(c2ccccc2)c2ccccc2)nc1C(=O)N[C@@H](CCCNC(=N)N)C(=O)O [Compound 3] | did not induce Ca^2+ release |
|  | compete with ^125I-labelled C3a | much more stable than C3a | remained intact | no binding | prevented | N=C(N)NCCCC(NC(=O)c1ccc(C(c2ccccc2)c2ccccc2)s1)C(=O)O (stereo not drawn) [Compound 6] | did not induce Ca^2+ release |
